US20140308244A1, “Combination Therapy for Treatment of Inflammatory Demyelinating Disease” (The Board of Trustees of the Leland Stanford Junior …, priority 2011, published 2014)

How the values were obtained:
[1] = test system: EAE; test: EAE relapse model: Rebif and/or Lisinopril treatment initiated at peak of disease; assay type: in vivo; settings: Rebif daily 0.25 μg/mouse intraperitoneally, Lisinopril 1 mg/kg/day orally
Method: FIG. 2 is a graph of disease scores for EAE, when combination treatment of Rebif and Lisinopril is initiated at the peak of disease.
In this instance, Rebif was given daily (0.25 μg/mouse, intraperitoneally), and Lisinopril was given daily (1 mg/kg/day, orally).

[2] = test system: experimental autoimmune encephalomyelitis (EAE); settings: mouse model for multiple sclerosis; Platten et al, 2009, PNAS 106:14948; cited from earlier work

In the case of NCCCC[C@H](N[C@@H](CCc1ccccc1)C(=O)O)C(=O)N1CCC[C@H]1C(=O)O [Lisinopril], the “Average Relapse Rate” value [1] is listed as 0.7, the “Average Relapse Rate” value ([1]; listed as PBS/Lisinopril) is listed as 0.70 and the “efficacy in treating EAE” value [2] is listed as “effective”.
